Laboratory results reported in patent publication US20230286973A1, “PROTEIN SECRETION INHIBITORS” (KEZAR LIFE SCIENCES, priority 2020, published 2023).

What was measured:
[1] = system: PD1-ss+10aa/Gaussia Luciferase; assay: Dox-Induced PD1-ss-Gluc Assay; assay type: cell-based; settings: 24 hr Dox induction; 293FRT/TO cells; mean; read-out: 24 hr Dox Inducible PD1ssGluc 293FRT/TO: Mean IC50
Procedure, shortened: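 Flp-In 293 T-REx cells stably carrying a doxycycline-inducible Gaussia luciferase fused to the PD1 signal sequence plus 10 aa were plated the day before. Compound dilutions in DMSO/media containing doxycycline were then added and incubated at 37 °C, 5% CO2. Data for undefined stereochemistry refer to stereoisomer mixtures.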

[2] = system: TNFα-FL/Gaussia Luciferase; assay: Dox Induced TNFα-FL-Gluc Assay; assay type: cell-based; settings: for IC50: 24 hr Dox induction, 293FRT/TO cells, mean, read-out: 24 hr Dox Inducible TNFaFLGluc 293FRT/TO: Mean IC50; for 24 hr Dox Inducible TNFaFLGluc 293FRT/TO: TNF/PD1: ratio of TNFaFLGluc IC50 to PD1ssGluc IC50, '<=>' given where both are I.A.
Procedure, shortened: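 Hygromycin/blasticidin-selected Flp-In 293 T-REx cells, TNFα-FL/Gaussia luciferase fusion under T-REx control; overnight plating, then compound in DMSO/media with doxycycline at 37 °C, 5% CO2; stereo-undefined structures tested as mixtures.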

[3] = system: HER3-ss+4aa/Gaussia Luciferase; assay: Dox-Induced Her3-ss-Gluc Assay; assay type: cell-based; settings: 24 hr Dox induction; 293FRT/TO cells; mean; read-out: 24 hr Dox Inducible Her3(ss + 4)Gluc 293FRT/TO: Mean IC50
Procedure, shortened: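 Doxycycline-inducible HER3 signal sequence+4aa/Gaussia luciferase construct, stably integrated in Flp-In 293 T-REx cells; compound dilutions applied with doxycycline at 37° C., 5% CO2.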

[4] = system: IL-2-FL/Gaussia Luciferase; assay: Dox Induced IL2-FL-Gluc Assay; assay type: cell-based; settings: for IC50: 24 hr Dox induction, 293FRT/TO cells, mean, read-out: 24 hr Dox Inducible IL2FLGluc 293FRT/TO: Mean IC50; for 24 hr Dox Inducible IL2FLGluc 293FRT/TO: IL2/PD1: ratio of IL2FLGluc IC50 to PD1ssGluc IC50, '<=>' given where both are I.A.
Procedure, shortened: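 A hygromycin- and blasticidin-resistant 293 T-REx clone carrying inducible IL-2–Gaussia luciferase (full-length IL-2, residues 1-153) serves as the cell system. After overnight plating, the cells get test compounds together with doxycycline in DMSO/media and are incubated at 37° C, 5% CO2.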

[5] = system: multiple myeloma cell line NCI-H929; assay: H929 Cell Viability Assay; assay type: cell-based, human; settings: Homo sapiens, NCI-H929, 48 h, NCI-H929 cells, Celltiter-Glo
Procedure, shortened: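 A 48-hour compound treatment of cells in 10% FBS RPMI medium was followed by luciferase-based viability quantification.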

[6] = system: multiple myeloma cell line U266B1; assay: U266 Cell Viability Assay; assay type: cell-based, human; settings: Homo sapiens, U-266, 48 h, U266B1 cells, Celltiter-Glo
Procedure, shortened: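 After growth in serum-supplemented RPMI 1640, cells received serially diluted compound in DMSO/media and were kept 48 hours before a CellTiter-Glo luminescence readout.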

[7] = Liver Microsome Stability Assay (rat); settings: rat liver microsomes, with NADPH, 1.0 uM compound
Method: (§1) Stability of a compound was assessed in the presence of liver microsomes from various sources—mouse, rat, monkey and human liver microsomes. 1.0 uM compound, 0.4% DMSO in 0.1 M Potassium Phosphate with 1.0 mg/mL liver microsomes, were incubated at 37° C. with or without 1 mM NADPH. The samples were quenched at 0, and 30 minutes.

[8] = Liver Microsome Stability Assay (mouse); settings: mouse liver microsomes, with NADPH, 1.0 uM compound
Method: as §1

[9] = Liver Microsome Stability Assay (human); settings: human liver microsomes, with NADPH, 1.0 uM compound
Method: as §1

[10] = Liver Microsome Stability Assay (monkey); settings: monkey liver microsomes, with NADPH, 1.0 uM compound
Method: as §1

Row | SMILES | IC50 [1] [µM] | IC50 [2] [µM] | IC50 [3] [µM] | IC50 [4] [µM] | EC50 [5] [µM] | EC50 [6] [µM] | Liver Microsome Stability (Multiple Species): Rat - % Remaining after 30 min w/NADPH [7] [%] | Liver Microsome Stability (Multiple Species): Mouse - % Remaining after 30 min w/NADPH [8] [%] | Liver Microsome Stability (Multiple Species): Human - % Remaining after 30 min w/NADPH [9] [%] | Liver Microsome Stability (Multiple Species): Monkey - % Remaining after 30 min w/NADPH [10] [%] | 24 hr Dox Inducible TNFaFLGluc 293FRT/TO: TNF/PD1 [2] | 24 hr Dox Inducible IL2FLGluc 293FRT/TO: IL2/PD1 [4]
1 | O=C(Nc1nc([C@H]2CCCN2c2ccccc2)cs1)c1cccn1CC1CCC(F)(F)C1 (stereo partly drawn) [Compound C123, 1-((3,3-difluorocyclopentyl)methyl)-N-(4-((R)-1-phenylpyrrolidin-2-yl)thiazol-2-yl)-1H-pyrrole-2-carboxamide] | 0.377 | 8.55 | 0.62 | 0.776 | > 25 | > 25 | 6.16 | 23.6 | 58.5 | 3.11 | 22.7 | 2.1
2 | O=C(Nc1nc(/C=C/c2ncc(F)cc2F)cs1)c1cccn1CC1CCOCC1 [Compound D2, (E)-N-(4-(2-(3,5-difluoropyridin-2-yl)vinyl)thiazol-2-yl)-1-((tetrahydro-2H-pyran-4-yl)methyl)-1H-pyrrole-2-carboxamide] | 0.397 | 6.09 | 1.5 | > 13.5 | > 23.9 | > 25 | 0.39 | 2.76 | 5.79 | 0.23 | 15.3 | >34
3 | Cc1ccc(/C=C/c2csc(NC(=O)c3cccn3CC3CCOCC3)n2)nc1F [Compound D3, (E)-N-(4-(2-(6-fluoro-5-methylpyridin-2-yl)vinyl)thiazol-2-yl)-1-((tetrahydro-2H-pyran-4-yl)methyl)-1H-pyrrole-2-carboxamide] | 0.734 | > 25 | 2 | 6.66 | 10.2 | > 17.8 | 0.26 | 0.46 | 0.24 | 0.09 | >34.1 | 9.1
4 | O=C(Nc1nc(/C=C/c2ncoc2C2CCCCC2)cs1)c1cccn1CC1CCOCC1 [Compound D4, (E)-N-(4-(2-(5-cyclohexyloxazol-4-yl)vinyl)thiazol-2-yl)-1-((tetrahydro-2H-pyran-4-yl)methyl)-1H-pyrrole-2-carboxamide] | 1.04 | > 25 | 10.6 | > 25 | > 25 | > 25 | 1.86 | 29.8 | 5.39 | 1.35 | >24.1 | >24
5 | O=C(Nc1nc(/C=C/c2cn(C3CCCCC3)cn2)cs1)c1cccn1CC1CCOCC1 [Compound D5, (E)-N-(4-(2-(1-cyclohexyl-1H-imidazol-4-yl)vinyl)thiazol-2-yl)-1-((tetrahydro-2H-pyran-4-yl)methyl)-1H-pyrrole-2-carboxamide] | 0.776 | > 25 | 21.4 | 13.5 | 18.9 | > 24.7 | 0.16 | 0.54 | 0.18 | 0.17 | >32.2 | 17
6 | CC(C)c1ccc(/C=C/c2csc(NC(=O)c3cccn3CC3CCOCC3)n2)nc1 [Compound D6, (E)-N-(4-(2-(5-isopropylpyridin-2-yl)vinyl)thiazol-2-yl)-1-((tetrahydro-2H-pyran-4-yl)methyl)-1H-pyrrole-2-carboxamide] | 0.595 | > 25 | 6.2 | > 25 | 8.68 | 12.3 | 0.06 | 0.09 | 0.03 | 0.04 | >42.0 | >42
7 | CC(C)n1cnc(/C=C/c2csc(NC(=O)c3cccn3CC3CCOCC3)n2)c1 [Compound D7, (E)-N-(4-(2-(1-isopropyl-1H-imidazol-4-yl)vinyl)thiazol-2-yl)-1-((tetrahydro-2H-pyran-4-yl)methyl)-1H-pyrrole-2-carboxamide] | 2.83 | > 25 | > 25 | > 25 | > 25 | > 25 | 2.55 | 0.56 | 0.04 | 0.07 | >8.84 | >8.8

The next lines start with results.

Row | IC50 [1] [µM] | IC50 [2] [µM] | IC50 [3] [µM] | IC50 [4] [µM] | EC50 [5] [µM] | EC50 [6] [µM] | Liver Microsome Stability (Multiple Species): Rat - % Remaining after 30 min w/NADPH [7] [%] | Liver Microsome Stability (Multiple Species): Mouse - % Remaining after 30 min w/NADPH [8] [%] | Liver Microsome Stability (Multiple Species): Human - % Remaining after 30 min w/NADPH [9] [%] | Liver Microsome Stability (Multiple Species): Monkey - % Remaining after 30 min w/NADPH [10] [%] | SMILES | 24 hr Dox Inducible TNFaFLGluc 293FRT/TO: TNF/PD1 [2] | 24 hr Dox Inducible IL2FLGluc 293FRT/TO: IL2/PD1 [4]
8 | 0.154 | > 25 | 4.13 | 22.1 | 23.9 | > 25 | 0.33 | 0.33 | 0.57 | 0.53 | Cc1ccnc(/C=C/c2csc(NC(=O)c3cccn3Cc3ccncc3)n2)c1 [Compound E1, (E)-N-(4-(2-(4-methylpyridin-2-yl)vinyl)thiazol-2-yl)-1-(pyridin-4-ylmethyl)-1H-pyrrole-2-carboxamide] | >163 | 140
9 | 0.0234 | 4.85 | 0.409 | 0.53 | 7.34 | > 25 | 35.4 | 28.6 | 17.5 | 13.5 | C/C(=C\c1ccc(OC(F)(F)F)cn1)c1csc(NC(=O)c2cccn2Cc2ccncc2)n1 [Compound E2, (E)-1-(pyridin-4-ylmethyl)-N-(4-(1-(5-(trifluoromethoxy)pyridin-2-yl)prop-1-en-2-yl)thiazol-2-yl)-1H-pyrrole-2-carboxamide] | 208 | 23
10 | 0.798 | > 25 | 7.18 | 13.1 | > 25 | > 25 | 0.35 | 2.41 | 0.35 | 0.6 | O=C(Nc1nc(C#Cc2ccccn2)cs1)c1cccn1Cc1ccncc1 [Compound E3, N-(4-(pyridin-2-ylethynyl)thiazol-2-yl)-1-(pyridin-4-ylmethyl)-1H-pyrrole-2-carboxamide] | >31.3 | 16
